Results: the NIST ThermoML archive (doi:10.1021/je900298e)
Numbers after ± are expanded uncertainties.

Conditions: 101.33 kPa, Liquid

CCCC[N+]1(C)CCCC1.O=S(=O)([N-]S(=O)(=O)C(F)(F)F)C(F)(F)F
mass density (289 K): 1404.3 ± 1.6 kg/m3 | mass density (291 K): 1402.6 ± 1.5 kg/m3 | mass density (293 K): 1401 ± 1.5 kg/m3 | mass density (295 K): 1399.4 ± 1.5 kg/m3 | mass density (297.05 K): 1397.8 ± 1.5 kg/m3 | mass density (299.05 K): 1396.2 ± 1.5 kg/m3 | mass density (301.05 K): 1394.6 ± 1.5 kg/m3 | mass density (303.1 K): 1393.1 ± 1.5 kg/m3 | mass density (305.1 K): 1391.5 ± 1.5 kg/m3 | mass density (307.1 K): 1390 ± 1.5 kg/m3 | mass density (309.1 K): 1388.5 ± 1.5 kg/m3
